Test results from the supplement of paper PMC10307832.

Columns and labels:
Experiment in all cases: relative viability (nuclei count vs DMSO), 5 days (fraction); higher = more cells survive
IPA-3 + Luminespib = compound: C1=CC=C2C(=C1)C=CC(=C2SSC3=C(C=CC4=CC=CC=C43)O)O [IPA-3] + CCNC(=O)c1noc(-c2cc(C(C)C)c(O)cc2O)c1-c1ccc(CN2CCOCC2)cc1 [Luminespib] (partner 0.01 µM)
Method in brief: (§1)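 Relative viability equals treated-well nuclei counts divided by vehicle-well nuclei counts. Counts came from 4× images of lung cancer cell lines grown in 1536-well plates for 5 days after pin-tool dosing on the day after seeding. Dosing used one drug alone or a fixed anchor-drug dose plus five library-drug doses (not always all listed) in √10 steps, and values are medians of duplicate plates.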

IPA-3 + Dasatinib = compound: C1=CC=C2C(=C1)C=CC(=C2SSC3=C(C=CC4=CC=CC=C43)O)O [IPA-3] + Cc1nc(Nc2ncc(C(=O)Nc3c(C)cccc3Cl)s2)cc(N2CCN(CCO)CC2)n1 [Dasatinib] (partner 0.075 µM)
Method in brief: as §1

Doramapimod + OSI-027 = compound: Cc1ccc(-n2nc(C(C)(C)C)cc2NC(=O)Nc2ccc(OCCN3CCOCC3)c3ccccc23)cc1 [Doramapimod] + COc1cccc2cc(-c3nc([C@H]4CC[C@H](C(=O)O)CC4)n4ncnc(N)c34)[nH]c12 [OSI-027] (partner 0.5 µM)
Method in brief: as §1

RAF265 + Vorinostat = compound: Cn1c(Nc2ccc(C(F)(F)F)cc2)nc2cc(Oc3ccnc(-c4ncc(C(F)(F)F)[nH]4)c3)ccc21 [RAF265] + O=C(CCCCCCC(=O)Nc1ccccc1)NO [Vorinostat] (partner 1 µM)
Method in brief: as §1

Cell Line | relative viability (IPA-3 + Luminespib; first compound 0.2 µM) | relative viability (IPA-3 + Luminespib; first compound 0.6325 µM) | relative viability (IPA-3 + Luminespib; first compound 2 µM) | relative viability (IPA-3 + Luminespib; first compound 6.325 µM) | relative viability (IPA-3 + Luminespib; first compound 20 µM) | relative viability (IPA-3 + Dasatinib; first compound 0.2 µM) | relative viability (IPA-3 + Dasatinib; first compound 0.6325 µM) | relative viability (IPA-3 + Dasatinib; first compound 2 µM) | relative viability (IPA-3 + Dasatinib; first compound 6.325 µM) | relative viability (IPA-3 + Dasatinib; first compound 20 µM) | relative viability (Doramapimod + OSI-027; first compound 0.02 µM) | relative viability (Doramapimod + OSI-027; first compound 0.06325 µM) | relative viability (Doramapimod + OSI-027; first compound 0.2 µM) | relative viability (Doramapimod + OSI-027; first compound 0.6325 µM) | relative viability (Doramapimod + OSI-027; first compound 2 µM) | relative viability (RAF265 + Vorinostat; first compound 0.01 µM) | relative viability (RAF265 + Vorinostat; first compound 0.03162 µM) | relative viability (RAF265 + Vorinostat; first compound 0.1 µM) | relative viability (RAF265 + Vorinostat; first compound 0.3162 µM) | relative viability (RAF265 + Vorinostat; first compound 1 µM)
NCI-H460 | 0.0346 | 0.0286 | 0.0329 | 0.0351 | 0.0331 | 0.757 | 0.45 | 0.422 | 0.539 | 0.363 | 0.612 | 0.721 | 0.658 | 0.753 | 0.585 | 0.756 | 0.692 | 0.671 | 0.668 | 0.642
NCI-H520 | 0.213 | 0.3 | 0.266 | 0.244 | 0.247 | 0.311 | 0.194 | 0.185 | 0.18 | 0.179 | 0.229 | 0.276 | 0.223 | 0.245 | 0.232 | 0.777 | 0.579 | 0.688 | 0.572 | 0.55
NCI-H522 | 1.34 | 1.05 | 1.25 | 1.05 | 1.07 | 0.875 | 0.922 | 0.847 | 0.86 | 0.884 | 0.667 | 0.705 | 0.767 | 0.68 | 0.656 | 0.841 | 1.02 | 1.05 | 0.872 | 0.857
NCI-H596 | 1.17 | 0.955 | 1.04 | 0.637 | 0.662 | 0.635 | 0.573 | 0.765 | 0.69 | 0.752 | 0.653 | 0.658 | 0.665 | 0.783 | 0.57 | 0.809 | 0.642 | 0.642 | 0.589 | 0.522
NCI-H647 | 0.192 | 0.148 | 0.176 | 0.142 | 0.102 | 0.271 | 0.175 | 0.192 | 0.115 | 0.0437 | 0.702 | 0.546 | 0.706 | 0.711 | 0.639 | 0.627 | 0.411 | 0.585 | 0.397 | 0.356
NCI-H650 | 0.964 | 0.851 | 0.733 | 0.805 | 1.06 | 0.461 | 0.498 | 0.439 | 0.438 | 0.44 | 0.544 | 0.626 | 0.61 | 0.608 | 0.52 | 0.442 | 0.418 | 0.42 | 0.277 | 0.232
NCI-H661 | 0.911 | 0.874 | 0.919 | 0.866 | 0.921 | 1.06 | 0.871 | 0.656 | 0.867 | 0.787 | 0.71 | 0.732 | 0.791 | 0.799 | 0.629 | 0.834 | 0.698 | 0.639 | 0.554 | 0.568
NCI-H727 | 0.318 | 1.29 | 0.755 | 0.33 | 0.24 | 0.295 | 0.423 | 0.328 | 0.385 | 0.389 | 0.497 | 0.556 | 0.688 | 0.472 | 0.57 | 1.26 | 1.16 | 1.03 | 1.24 | 0.862
NCI-H838 | 0.238 | 0.218 | 0.306 | 0.276 | 0.378 | 0.32 | 0.234 | 0.291 | 0.319 | 0.328 | 0.383 | 0.364 | 0.376 | 0.369 | 0.326 | 0.735 | 0.716 | 0.72 | 0.691 | 0.632
NCI-H1355 | 0.889 | 0.677 | 0.719 | 0.702 | 0.757 | 0.774 | 0.719 | 0.714 | 0.695 | 0.594 | 0.412 | 0.409 | 0.381 | 0.361 | 0.341 | 0.641 | 0.607 | 0.578 | 0.604 | 0.419
NCI-H1395 | 0.726 | 0.671 | 0.6 | 0.601 | 0.699 | 0.408 | 0.42 | 0.385 | 0.44 | 0.466 | 0.617 | 0.728 | 0.702 | 0.826 | 0.523 | 0.791 | 0.65 | 0.807 | 0.554 | 0.587
NCI-H1437 | 1.15 | 0.951 | 1.1 | 1.03 | 1.24 | 0.542 | 0.411 | 0.286 | 0.501 | 0.718 | 0.953 | 0.883 | 0.852 | 0.938 | 0.866 | 0.823 | 0.778 | 0.947 | 0.887 | 0.715
NCI-H1650 | 0.193 | 0.179 | 0.218 | 0.208 | 0.191 | 0.331 | 0.301 | 0.323 | 0.404 | 0.295 | 0.692 | 0.689 | 0.713 | 0.76 | 0.459 | 0.615 | 0.587 | 0.595 | 0.655 | 0.566
NCI-H1651 | 1.04 | 0.768 | 0.853 | 0.959 | 1.02 | 0.652 | 0.304 | 0.486 | 0.574 | 0.458 | 0.751 | 0.701 | 0.727 | 0.729 | 0.656 | 0.61 | 0.637 | 0.521 | 0.591 | 0.453
NCI-H1666 | 1.06 | 0.972 | 1.04 | 1.16 | 1.34 | 0.908 | 0.825 | 0.871 | 0.836 | 0.855 | 0.974 | 0.852 | 0.846 | 0.787 | 0.772 | 1.13 | 0.923 | 0.906 | 0.99 | 0.854
NCI-H1734 | 0.191 | 0.224 | 0.185 | 0.216 | 0.194 | 0.564 | 0.486 | 0.459 | 0.507 | 0.444 | 0.55 | 0.508 | 0.537 | 0.589 | 0.448 | 0.801 | 0.715 | 0.731 | 0.536 | 0.322
NCI-H1755 | 0.447 | 0.421 | 0.416 | 0.479 | 0.597 | 0.512 | 0.44 | 0.371 | 0.426 | 0.472 | 0.709 | 0.659 | 0.727 | 0.669 | 0.586 | 0.8 | 0.663 | 0.694 | 0.579 | 0.476
NCI-H1793 | 0.192 | 0.381 | 0.14 | 0.462 | 0.16 | 0.442 | 0.325 | 0.362 | 0.381 | 0.43 | 0.238 | 0.262 | 0.278 | 0.36 | 0.242 | 0.865 | 0.697 | 0.633 | 0.201 | 0.311
NCI-H1915 | 0.968 | 0.534 | 0.775 | 0.713 | 0.926 | 0.317 | 0.297 | 0.312 | 0.316 | 0.334 | 0.591 | 0.622 | 0.671 | 0.606 | 0.561 | 0.502 | 0.436 | 0.424 | 0.296 | 0.201
NCI-H1944 | 0.914 | 0.651 | 0.891 | 0.827 | 0.937 | 0.213 | 0.198 | 0.244 | 0.314 | 0.234 | 0.365 | 0.451 | 0.352 | 0.492 | 0.286 | 0.674 | 0.602 | 0.55 | 0.405 | 0.491
NCI-H1975 | 0.236 | 0.189 | 0.213 | 0.19 | 0.365 | 0.466 | 0.368 | 0.337 | 0.334 | 0.299 | 0.703 | 0.741 | 0.802 | 0.792 | 0.663 | 0.718 | 0.644 | 0.542 | 0.338 | 0.325
NCI-H1993 | 1.05 | 1.32 | 0.852 | 0.478 | 0.844 | 0.567 | 1.77 | 0.63 | 0.364 | 0.585 | 0.573 | 0.566 | 0.59 | 0.495 | 0.522 | 0.9 | 0.902 | 0.756 | 0.823 | 0.768
NCI-H2009 | 1.06 | 1.04 | 1.07 | 0.941 | 1.06 | 0.346 | 0.307 | 0.287 | 0.295 | 0.19 | 0.657 | 0.72 | 0.773 | 0.765 | 0.587 | 0.744 | 0.649 | 0.757 | 0.761 | 0.512
NCI-H2023 | 0.93 | 0.617 | 0.674 | 0.712 | 0.693 | 0.816 | 0.513 | 0.68 | 0.493 | 0.679 | 0.362 | 0.362 | 0.369 | 0.479 | 0.301 | 0.59 | 0.501 | 0.707 | 0.515 | 0.381
NCI-H2085 | 0.475 | 0.411 | 0.502 | 0.432 | 0.5 | 0.224 | 0.256 | 0.267 | 0.23 | 0.266 | 0.645 | 0.706 | 0.688 | 0.698 | 0.544 | 0.891 | 0.714 | 0.82 | 0.788 | 0.803
NCI-H2087 | 0.169 | 0.14 | 0.183 | 0.197 | 0.167 | 1.16 | 0.663 | 0.865 | 0.822 | 0.777 | 0.567 | 0.449 | 0.51 | 0.655 | 0.506 | 0.634 | 0.359 | 0.757 | 0.864 | 0.719
